# Measurements reported in patent US12721808B2, “Orris root extracts, compositions, and methods for skin applications” (ACCESS BUSINESS GROUP INTERNATIONAL LLC, priority 2021, dated 2026).
# System: B16-F10 (B16) cells
# Assay: Bioassay Directed Fractionation (BDF) with B16 cell culture pigmentation assay
# Assay type: cell-based
# Details: LC fraction (20 sec) of Orris root extract corresponding to the compound's peak, FIG. 2
# Description: Sample extracts were prepared at 50 mg/ml in DMSO and sonicated for 20 min. Samples solutions were then filtered through 0.2 μm Whatman Anotop 25 syringe filter into autosampler vials for assay. The LC-MS system was modified to incorporate a 10:1 splitter that was positioned between the UV detector and MS ion source. The majority of LC effluent was directed to a Waters Fraction Collector II fitted with a 96-deep well plate into which fractions were collected by time at intervals of 20 sec/well for the first 32 minutes of each run (96 wells/run). The LC column was a XBridge Shield RP18, 5 μm, 4.6×250 mm maintained at ambient temperature (22° C.). The solvent program was ramped linearly as follows: 95% A/5% B at time 0, to 100% B at 30 min, hold at 100% B to 32 min, then to 95% A/5% B at 32.1 min and hold 95% A/5% B until 36 min. The flow rate was 0.8 mL/min and an injection volume of […] was used (0.5 mg solids/injection). Effluent from four consecutive LC runs was collected per plate (2 mg solids/plate). Plates were then dried under nitrogen at 40° C. to remove acetonitrile and residual water was removed by freeze drying. Plates were stored at −80° C. until to assayed for pigmentation response.
# The results of the BDF are shown in FIG. 2, with LC-UV chromatogram A at 260 nm showing phytochemical peak profile, and time-aligned bar graph B (with each bar representing a fraction from the LC effluent collected for 20 seconds), showing pigmentation responses using B16 cell culture assay.
# Primary cells and cell lines were grown in a humidified atmosphere of 5% CO2 at 37° C. […]
# B16 cells (6000 cells/well) were pre-cultured in 96-well plates in DMEM medium supplemented with 10% FBS and 1% P/S for 24 hours. […] The absorbance at 405 nm was measured, and MTT (3-(4,5-dimethylthiazol-2-yl)-2,5-diphenyltetrazolium bromide) assay was performed to examine the viability of cells. […]
row,Structure (SMILES),pigmentation response
1,"COc1c2c(cc3occ(-c4ccc(O[C@@H]5O[C@H](CO)[C@@H](O)[C@H](O)[C@H]5O)cc4)c(=O)c13)OCO2 [germanaism B, Germanaism B]",Increased pigmentation
2,"C=C1CC[C@H](C)C(C)(C)[C@@H]1/C=C/C(C)=C/CC[C@@]1(CO)[C@H](CCCO)/C(=C(/C)C=O)CC[C@]1(C)O [iriflorental, Iriflorental]",reduced pigmentation
3,"CC1=CC[C@H](C)C(C)(C)[C@@H]1/C=C/C(C)=C/CC[C@@]1(CO)[C@H](CCCO)/C(=C(/C)C=O)CC[C@]1(C)O [iripallidal, Iripallidal]",reduced pigmentation
